Assay results as given in patent US10028996B2, “Process for the synchronization of ovulation for timed breeding without heat detection” (priority 2003, dated 2018).

Experiments:
Assay type in all cases: in vivo, swine
[1] = test system: ovariectomized estrogen primed gilt model; test: Dose response study of deslorelin in SAIB, LH release determined by RIA; conditions: single injection of 50 mcg in SAIB
Method: A dose response study was performed using deslorelin in SAIB in an ovariectomized estrogen primed gilt model (Barb, et al. (1999) Proceed. Int'l. Symp. Control. Rel. Bioact. Mater., 26).

postpartum sows [2] = test: Single timed deslorelin injection 96 hours post-weaning, single timed insemination without estrus detection; conditions: 50 mcg in SAIB 96 hours post-weaning, no estrus detection
Method: Approximately 170 postpartum sows were randomly divided into two equal groups comprised of controls and treated. Following weaning, the controls were detected for estrus and bred following the normal standard operating procedures for the farms on which they resided. The treated sows received a 50 mcg dose of deslorelin in SAIB at 96 hours post-weaning and were bred with a single insemination 28+/−2 hours later with no regard to estrus detection. The sows were examined for pregnancy by ultrasound at 21 days and slaughtered around 28 days post breeding. The entire reproductive tract was removed and corpora lutea and embryos were counted.

postpartum sows [3] = test: Litter size after deslorelin treatment in postpartum sows at three farm sites; conditions: Tables 3 to 5; regardless of estrus detection
From the text: Postpartum sows were randomly distributed into three different groups comprised of Controls, Treatment 1, and Treatment 2, with the exception of Site 3, which was divided into two groups, Control and Treatment 2. Control sows were detected for estrus following weaning, and bred following the normal standard operating procedures for the farms on which they resided. Treatment 1 sows were detected for estrus following weaning, and received a 50 mcg dose of deslorelin in the morning when standing and were bred by AI 4 hours later and again at 24+/−2 hours later. Treatment 2 sows received a 50 mcg dose of deslorelin in SAIB at 96 or 120 hours post-weaning and were bred with a single insemination 28+/−2 hours later with no regard to estrus detection.

mature postpartum sows = test: Deslorelin injected intravulvar at estrus detection in mature postpartum sows, AI breeding; conditions: 50 mcg intravulvar at estrus detection
Method: Sows were assigned randomly in blocks of two to either control or to be injected intravulvar with 50 mcg of deslorelin in SAIB at the time of estrus detection for sows first detected in estrus in the a.m. and 12 hours later for those first detected in estrus in the p.m. Treated animals were bred AI upon detected estrus and again 24 hours later if still in estrus. Controls received a saline injection on first detected estrus behavior estrus detection and were bred according to the farm's normal procedures.

Question: What does the source list for `CCNC(=O)[C@@H]1CCCN1C(=O)[C@H](CCCN=C(N)N)NC(=O)[C@H](CC(C)C)NC(=O)[C@@H](Cc1c[nH]c2ccccc12)NC(=O)[C@H](Cc1ccc(O)cc1)NC(=O)[C@H](CO)NC(=O)[C@H](Cc1c[nH]c2ccccc12)NC(=O)[C@H](Cc1cnc[nH]1)NC(=O)[C@@H]1CCC(=O)N1` [Deslorelin, deslorelin]?
Answer: time at which LH returned to base level [1]: ≤ 18 h; LH peak relative to normal value ([1]; compared to Hansel et al. (1973)): about twice normal value; Pregnancy Rate (postpartum sows [2]): 71%; litter sizes, in words (postpartum sows [3]): normal litter sizes; difference in pregnancy rates, Control versus Treated (mature postpartum sows): no significant difference
